Here are results for two molecules from publication PMC8027415, “Plant resistome profiling in evolutionary old bog vegetation provides new clues to understand emergence of multi-resistance” (The ISME Journal, 2020).

For this test, the system named is T1, Mm3 (β-lactamase from Moss metagenome clone 3; blaMm3).
T1 construct: mix of tagged 35 kDa and 32 kDa species lacking tag
Briefly: spectrophotometric hydrolysis at […] nm, initial rates. It counts as biochemical, uncultured bacterium. Particulars: 20 mM sodium phosphate, 0.2 M NaCl, pH 7.4, 30 °C.

For orientation: Km means the substrate concentration at which the rate is half of its maximum. Consider `CC1(C)S[C@@H]2[C@H](NC(=O)[C@H](N)c3ccccc3)C(=O)N2[C@H]1C(=O)O` [ampicillin], for which, under “fitted with the Hill equation (half-saturation constant)”, the Km came to 271 ± 16.4 µM.

In the case of `CC1(C)S[C@@H]2[C@H](NC(=O)C(C(=O)O)c3ccccc3)C(=O)N2[C@H]1C(=O)O` (some centres unmarked) [carbenicillin], the Km (fitted with the Michaelis-Menten equation) came to 400 ± 42.7 µM.
